For series [1] the following is noted: per os, sheep; cited from earlier work.
Series [2] can be described thus: Safety on oral administration to cattle (Example 12). To be noted: bovine, in vivo, selenium, cobalt and fenbendazole in combination (preparation of Example 3), read-out: oral administration with no adverse effect observed. As for the experimental part: The safety of the composition of Example 3 on oral administration to cattle was investigated: • A total of 16 cattle were treated-orally with the preparation of Example 3. Eight Friesian heifers weighing between 330 and 420 kg were treated with the preparation at the recommended dose of 7.5 ml per 100 kg body weight. Four Friesian cattle weighing between 930 and 990 kg were treated orally with the preparation at five times the recommended dose i.e. 37.5 ml per 100 kg. A further four Friesan cattle weighing between 870 and 1030 kg were treated orally with the preparation at ten times the recommended dose i.e. […].
The cattle were observed daily for a period of 21 days following treatment for any signs at adverse effect.

A short description of series [3]: Toxicity in lambs, daily clinical examinations after oral treatment (Example 2). To be noted: sheep, in vivo, per os, given together with fenbendazole as developmental formulation, read-out: oral dose levels tolerated, no signs of drug toxicity. As for the experimental part:
Animals: Twenty, six to eight month old lambs were made available for the purpose of this investigation. The lambs were allocated to five groups (n = 4) on the basis of mean faecal egg counts determined on each of three successive days.
Prior to treatment, all lambs were weighed. Lambs were maintained at grass as a single group for the duration of the study.
• Group 1: Untreated controls • Group 2: Treated with 5 mg/kg fenbendazole as Panacur 2.5 % Suspension (Commercial batch, "Panacur", is a Trade Mark) Composition of Panacur 2.5 % : as described in Example 1 with the omission of the selenium and cobalt components. • Group 3: Treated with 5 mg/kg fenbendazole as a developmental formulation (see below) • Group 4: Treated with 25 mg/kg fenbendazole as a developmental formulation (see below) • Group 5: Treated with 50 mg/kg fenbendazole as a developmental formulation (see below)
Groups 4 and 5 thus received five and ten times respectively the recommended dose of fenbendazole and cobalt, and 12.5 and 25 times respectively the recommended dose of selenium.
Clinical examinations were carried out on all lambs daily post treatment for the duration of the study.

With `[Se]` [elemental selenium], the LD50 in series [1] is 0.5 mg/kg. Moreover, the NOAEL at 504 h in series [2] is no less than 20 mg/kg. In addition, the NOAEL in series [3] is no less than 2 mg/kg.
For `COC(=O)Nc1nc2ccc(Sc3ccccc3)cc2[nH]1` [Fenbendazole, 5-Phenyl-thio-2-benzimidazolecarbamic acid methylester, reference compound], the NOAEL at 504 h in series [2] is no more than 75 mg/kg.

What is called LD50 is the dose at which mortality reaches 50%.
